These results are taken from patent US20250228847A1, “COMBINATION THERAPY FOR TREATING CANCER” (AstraZeneca AB, priority 2022, published 2025).

The test system of one test is C4-2 cells. Briefly: Cell proliferation / viability assay (Sytox Green, AC50), 7 days treatment. It counts as cell-based. Conditions: C4-2 cell line (mCRPC, AR+, ARV7), single agent. On the procedure: (§1) The following cell lines were originally obtained from ATCC:
(§2) Cell line identification was validated using the CellCheck assay (IDEXX Bioanalytics, Westbrook, ME, USA). All cell lines were validated free of virus Mycoplasma contamination using the MycoSEQ assay (Thermo Fisher Scientific, Waltham, MA, USA) or STAT-Myco assay (IDEXX Bioanalytics). All cell lines were grown RPMI-1640 growth media (Corning 17-105-CV) supplemented with 10% fetal bovine serum (FBS) or, when indicated, 10% charcoal stripped FBS (ThermoFisher Scientific, 12676029) and 2 mM glutamine.
(§3) Cells in 384-well or 96-well plates were dosed using an Echo 555 (LabCyte, San Jose, CA, USA) or using the HP D300e Digital Dispenser (HP Life Science Dispensing), respectively. Live cell count pre- and post-treatment (7 days after treatment) was determined using CellTiter-Glo as per manufacturer's instructions (Promega, Madison, WI, USA; G7570).
(§4) Cell viability was determined with the Sytox Green assay as described in Davies 2012 and the AC50 calculated. The HSA (Highest Single Agent) Synergy Score was calculated according to Bernenbaum 1989.

Another test has as its system LnCAP cells. Described as above. It counts as cell-based. Conditions: Homo sapiens, LnCAP cell line (mHSPC, AR+ T877A), single agent. On the procedure: as §1, §2, §3, §4

As for `CCc1cc2ncc(CN3CCN(c4ccc(C(=O)NC)nc4)CC3)cc2[nH]c1=O` [AZD5305, 5-{4-[(7-ethyl-6-oxo-5,6-dihydro-1,5-naphthyridin-3-yl)methyl]piperazin-1-yl}-N-methylpyridine-2-carboxamide], the AC50 with C4-2 cells and in the test on LnCAP cells was above 1 µM in each case.
In the case of `C[C@]12CC[C@H](O)CC1=CC[C@@H]1[C@@H]2CC[C@]2(C)C(c3cccnc3)=CC[C@@H]12` [Abiraterone, abiraterone], the AC50 (in general, the midpoint of the concentration-response curve, whichever way the signal moves) in the test on C4-2 cells turned out to be 2.81 µM; with LnCAP cells, 4.94 µM.
